Data on one molecule can be found in patent US20250042918A1, “COMPOUNDS” (Fundación Del Sector Públlco Estatal Centro Nacional De …, priority 2021, published 2025).

In general, IC50 refers to the concentration needed to halve the response being measured.

Experiment [1] deals with KG-1. The experiment is described as follows: In vitro potency against leukemia cell lines (CellTiter Glo). It is filed as cell-based. As to conditions: Homo sapiens, 72 hours, read-out: absolute IC50 KG-1. Here is the method:
(§1) To prepare the complete medium FBS and appropriate additives were added according to the information sheet provided by the vendor and mixed gently. The cell name and complete medium and passage number marked on the flask were checked, and the culture medium removed and discarded using a vacuum pump. […] 3.0 ml of Trypsin-EDTA solution was added to the flask and the cells observed under an inverted microscope until cell layer is dispersed. 8.0 ml of complete growth medium was added and the cells aspirated by gently pipetting. The cell suspension was transferred to a centrifuge tube and centrifuged at 800-1000 rpm for 3-5 minutes. The supernatant was discarded using a vacuum pump, and an appropriate volume of complete medium added. The cell pellet was suspended by gently pipetting, and the cell numbers counted with Vi-cell XR and the cells adjusted to appropriate density. 100 μL of cell suspension to 96-well opaque-walled clear bottom plates was added according to the planned plate layout and the plates placed in the CO2 incubator overnight.
(§2) c. […] Meanwhile the day 0 plate was measured by Cell TiterGlo as listed below.
(§3) d. Cells were incubated with the compounds for 72 h at 5% CO2, 37° C.
(§4) The plate and its contents were equilibrated to room temperature for approximately 30 minutes, after which 100 μL of CellTiter-Glo reagent was added to the assay plate by Multidrop Combi instrument and the contents mixed for 10 minutes on an orbital shaker to induce cell lysis. The plate was allowed to incubate at room temperature for 10 minutes to stabilize luminescent signal and the clear bottom pasted with white back seal and the luminescence recorded with Enspire with the settings: Luminescence, measurement time 0.1 ms.
(§5) In all cases, the incubation time was 72 hours and the cell lines were grown as a suspension. The seeding density was […] in a 96 well plate.

The test system of experiment [2] is Molm-13. The description is as above. It is filed as cell-based. The conditions noted are these: Homo sapiens, 72 hours, read-out: absolute IC50 Molm-13. As for the experimental part:
as §1, §2, §3, §4, §5

For experiment [3], the system named is MV-4-11. Described as above. It is filed as cell-based. The conditions noted are these: Homo sapiens, MV4-11; 72 hours; read-out: absolute IC50 MV-4-11. As for the experimental part:
as §1, §2, §3, §4, §5

Experiment [4] concerns HL-60. The experiment is described as above. It is filed as cell-based. As to conditions: Homo sapiens, 72 hours, read-out: absolute IC50 HL-60. Here is the method:
as §1, §2, §3, §4, §5

The test system of experiment [5] is Jeko-1. The experiment is described as above. As to conditions: Homo sapiens, 72 hours, read-out: absolute IC50 JeKo-1. It is filed as cell-based. As for the experimental part:
as §1, §2, §3, §4, §5

The subject of experiment [6] is OCI-M1. The description is as above. In kind it is cell-based. As to conditions: 72 hours, read-out: absolute IC50 OCI-M1. As for the experimental part:
as §1, §2, §3, §4, §5

The subject of experiment [7] is Kasumi-3. Described as above. In kind it is cell-based. As to conditions: 72 hours, read-out: absolute IC50 Kasumi-3. As for the experimental part:
as §1, §2, §3, §4, §5

The test system of experiment [8] is HCC1143. The experiment is described as follows: In vitro potency against breast cancer cell lines (CellTiter Glo). It is filed as cell-based. The conditions noted are these: Homo sapiens, HCC1143, 72 h; read-out: absolute IC50 HCC1143. As for the experimental part:
as §1, §2, §3
(§6) The CellTiter-Glo buffer was thawed and equilibrated to room temperature prior to use. The lyophilized CellTiter-Glo substrate was equilibrated to room temperature prior to use. The appropriate volume of CellTiter-Glo buffer was transferred into the amber bottle containing CellTiter-Glo substrate to reconstitute the lyophilized enzyme/substrate mixture, thereby forming the CellTiter-Glo reagent. Mixing was carried out by gently vortexing, swirling or by inverting the contents to obtain a homogeneous solution, the CellTiter-Glo substrate going into solution easily in less than one minute.
as §4
For orientation: ATP-based viability assays read luminescence as a measure of living cells.

Experiment [9] has as its system HCC1954. The description is as above. As to conditions: Homo sapiens, HCC1954, 72 h; read-out: absolute IC50 HCC1954. It is filed as cell-based. Here is the method:
as §1, §2, §3, §6, §4

Experiment [10] concerns HCC38. The experiment is described as above. In kind it is cell-based. The conditions noted are these: Homo sapiens, HCC38, 72 h; read-out: absolute IC50 HCC38. Here is the method:
as §1, §2, §3, §6, §4

Experiment [11] has as its system MDA-MB-361. The description is as above. In kind it is cell-based. As to conditions: Homo sapiens, MDA-MB-361, 72 h; read-out: absolute IC50 MDA-MB-361. Here is the method:
as §1, §2, §3, §6, §4

In experiment [12] the test system is BT-474. The description is as above. The conditions noted are these: Homo sapiens, BT-474, 72 h; read-out: absolute IC50 BT-474. It is filed as cell-based. As for the experimental part: as §1, §2, §3, §6, §4
For experiment [13], the system named is T-47D. The description is as above. It is filed as cell-based. As to conditions: Homo sapiens, T47D, 72 h; read-out: absolute IC50 T-47D. As for the experimental part: as §1, §2, §3, §6, §4
In experiment [14] the target is T1, PIM-2 (Homo sapiens, UniProt Q9P1W9).
T1 construct: made in house
T1 sequence (Q9P1W9 whole entry): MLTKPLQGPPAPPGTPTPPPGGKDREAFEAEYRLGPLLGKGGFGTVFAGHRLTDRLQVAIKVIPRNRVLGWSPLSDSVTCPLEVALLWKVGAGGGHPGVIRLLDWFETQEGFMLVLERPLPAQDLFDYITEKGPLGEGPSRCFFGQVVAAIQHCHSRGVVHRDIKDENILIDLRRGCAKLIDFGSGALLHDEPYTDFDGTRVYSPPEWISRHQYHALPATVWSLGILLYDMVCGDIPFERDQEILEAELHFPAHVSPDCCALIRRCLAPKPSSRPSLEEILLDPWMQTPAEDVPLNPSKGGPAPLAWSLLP
The experiment is described as follows: Protein PIM kinase assay (ADP Hunter Plus). In kind it is biochemical. The conditions noted are these: 100 μM ATP, 100 μM PIMtide. As for the experimental part: (§7) PIM kinase activities were measured by using the commercial ADP Hunter™ Plus assay (DiscoveRx Ref. #33-016), a homogeneous assay measuring ADP accumulation, as a universal product of kinase activity. PIM-1 and PIM-2 proteins were obtained by purification as it is described by Martinez-Gonzalez et. al. Eur. J. Med Chem. 2019, 168, 87-109 and PIM-3 was acquired from Millipore (Cat #14-738). The assay was done following general manufacturer recommendations and adapting protein and substrates concentrations to optimal conditions. Kinase buffer was 15 mM HEPES, pH 7.4, 20 mM NaCl, 1 mM EGTA, 0.02% Tween-20, 10 mM MgCl2 and 0.1 mg/mL LBGG (bovine y-globulin). All PIM kinases assays were done at 100 μM PIM tide (ARKRRRHPSGPPTA), as peptide substrate, and 100 μM ATP. Protein concentration was 50, 350 and 200 pg/μl for PIM-1, 2 and 3, respectively. In order to calculate the IC50 of described compounds, serial 1:3 dilutions were prepared and the reaction started by addition of ATP. Incubation was done for 1 h at 25° C. Reagents A and B (DiscoveRx) were sequentially added to the wells and plates were incubated for 30 min at 37° C. Fluorescence counts were read in a Victor instrument (Perkin Elmer) with the recommended settings (544 and 580 nm as excitation and emission wavelengths, respectively). Values were plot against inhibitor concentration and fit to a sigmoid dose-response curve using Activity Base software from IDBS.

The target of experiment [15] is T2, PIM-1 (Homo sapiens, UniProt P11309).
T2 construct: made in house
T2 sequence (P11309 whole entry): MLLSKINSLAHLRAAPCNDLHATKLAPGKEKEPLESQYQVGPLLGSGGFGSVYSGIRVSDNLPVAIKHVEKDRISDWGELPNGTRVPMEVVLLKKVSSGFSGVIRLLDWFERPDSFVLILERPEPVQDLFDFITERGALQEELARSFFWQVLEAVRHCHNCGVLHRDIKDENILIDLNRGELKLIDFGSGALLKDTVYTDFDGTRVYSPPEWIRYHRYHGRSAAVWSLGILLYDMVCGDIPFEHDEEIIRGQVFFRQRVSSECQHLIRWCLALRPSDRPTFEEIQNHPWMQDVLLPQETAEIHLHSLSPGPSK
The experiment is described as follows: Protein PIM kinase assay (ADP Hunter Plus). In kind it is biochemical. As to conditions: 100 μM ATP, 100 μM PIMtide. Here is the method: as §7

In experiment [16] the target is T3, PIM-3 (Homo sapiens, UniProt Q86V86).
T3 construct: purchased Millipore 14-738
The experiment is described as follows: Protein PIM kinase assay (ADP Hunter Plus). In kind it is biochemical. As to conditions: 100 μM ATP, 100 μM PIMtide. Here is the method: as §7

Consider `CN1CCOc2c1c(N[C@H]1CC[C@@](C)(O)CC1)nn1c(-c3cccc(OC(F)(F)F)c3)nnc21` [Example 1, 1-Methyl-4-[6-methyl-3-(3-trifluoromethoxy-phenyl)-7,8-dihydro-6H-9-oxa-1,2,3a,4,6-pentaaza-cyclopenta[a]naphthalen-5-ylamino]-cyclohexanol], for which the IC50 is 0.715 µM in [1]; 9.34 µM in [2]; 0.907 µM in experiment [3]; 8.75 µM in experiment [4]; 6.54 µM in experiment [5]; over 10 µM in [6]. Moreover, the IC50 in experiment [7] was determined as 0.232 µM; in experiment [8], 5.56 µM; in experiment [9] it was 8.04 µM; in experiment [10], 5.56 µM; in experiment [11], 9 µM; in experiment [12], 7.77 µM. The half-maximal inhibitory concentration (IC50) was 6.19 µM in experiment [13], 0.005 to 0.01 µM in [14], 0.001 to 0.005 µM in [15] and 0.005 to 0.01 µM in experiment [16].
